Measured values: the OligoGym collection
Several values for one entry are separate records, joined by “and”; a condition that tells them apart may be missing. Equal values may be shown once. After the bases stand the sugars from the 5' end (letter, count) and the backbone: PS all phosphorothioate, else s phosphorothioate and o phosphodiester by linkage. Methylation of C is not given here. e = 2'-O-(2-methoxyethyl) (MOE); k = constrained ethyl (cEt); d = 2'-deoxy (DNA)

Target: IRF5
Conditions: ASO

Row | Sequence | target mRNA inhibition (KARPAS-229, 4 µM) | other results
1 | TCATGAGTAATAGGAG (sugars k3 d10 k3, PS) | 11% | 
2 | AGATGGTGTTATCTCC (sugars kekdddddddddeekk, PS) | 0% | 
3 | TCTGATATGATACCTA (sugars k3 d10 k3, PS) | 63% and 78% | target mRNA inhibition (A-431, 0.00412 µM): 8%; target mRNA inhibition (A-431, 0.01225 µM): 27%; target mRNA inhibition (A-431, 0.03704 µM): 54%; target mRNA inhibition (A-431, 0.11111 µM): 78%; target mRNA inhibition (A-431, 0.33333 µM): 89%; target mRNA inhibition (A-431, 1 µM): 92%; target mRNA inhibition (KARPAS-229, 0.44444 µM): 59%; target mRNA inhibition (KARPAS-229, 1.33333 µM): 68%; target mRNA inhibition (KARPAS-229, 12 µM): 83%
4 | AGGAAGTGAGTCTCAA (sugars kkddddddddkekekk, PS) | 20% | 
5 | CATTCCATATACACAC (sugars k3 d9 k3 e1, PS) | 39% | 
6 | CAACATCCATCAATGA (sugars k3 d10 k3, PS) | 0% | 
7 | ATCACCACTGTGTACC (sugars k3 d10 k3, PS) | 11% | 
8 | AGGAAGTGAGTCTCAA (sugars kkkdddddddddkeke, PS) | 21% | 
9 | CACTGACACAGGCGGA (sugars kdddddddddddekek, PS) | 0% | 
10 | ACCACTGTGTACCCCA (sugars kkkddddddddkdkdk, PS) | 40% | 
11 | CCACTGTGTACCCCAT (sugars kkddddddddddkeke, PS) | 19% | 
12 | TTCCAATTTTGCATTC (sugars k3 d10 k3, PS) | 39% | 
13 | CTTTCTTGTCTAGTGT (sugars k3 d10 k3, PS) | 48% | 
14 | ACCACTGTGTACCCCA (sugars kkdddddddddkekek, PS) | 17% | 
15 | GATGGTGTTATCTCCG (sugars kkdddddddddkdkdk, PS) | 0% | 
16 | AGGTTCTTGGACTCTC (sugars k3 d9 k3 e1, PS) | 19% | 
17 | GGAAGTGAGTCTCAAA (sugars kkddddddddkekekk, PS) | 36% | 
18 | GTCTTGACCTCCCGCT (sugars kkdddddddddkekek, PS) | 40% | 
19 | AGGTTCTTGGACTCTC (sugars kkddddddddkekekk, PS) | 0% | 
20 | GTGTATTTCCCTGTCT (sugars kkddddddddkekekk, PS) | 0% | 
21 | CACATCTCCACATCAG (sugars kkkdddddddddkeke, PS) | 38% | 
22 | TGTTGAATTTTGTGAC (sugars k3 d10 k3, PS) | 26% | 
23 | ACTGACACAGGCGGAT (sugars k2 d8 e4 k2, PS) | 0% | 
24 | CACATCTCCACATCAG (sugars kkkddddddddkdkdk, PS) | 39% | 
25 | TGTCACATCTCCACAT (sugars kdddddddddkekeke, PS) | 0% | 

Row | Sequence | target mRNA inhibition (KARPAS-229, 4 µM) | other results
26 | CAGGTTCTTGGACTCT (sugars k3 d10 k3, PS) | 0% | 
27 | TGTCTAGTGTCATGGA (sugars kkkddddddddkekek, PS) | 57% | 
28 | GGTTCTTGGACTCTCA (sugars kdddddddddkekeke, PS) | 0% | 
29 | GAAGTGAGTCTCAAAC (sugars kddddddddddkekek, PS) | 44% | 
30 | AAGGGCACAGCGCAGG (sugars k3 d9 k3 e1, PS) | 3% | 
31 | ATGAGTCATGGGCTGA (sugars kkddddddddkekekk, PS) | 0% | 
32 | TTTGTGACTGTATTAC (sugars k3 d10 k3, PS) | 50% | 
33 | TATTTCTGCTCCAGGT (sugars kkdddddddddkdkdk, PS) | 27% | 
34 | GTGAGTCTCAAACCAG (sugars kekdddddddddeekk, PS) | 22% | 
35 | ACCATTCTATGCCTTT (sugars kdddddddddkekeke, PS) | 10% | 
36 | TGTCTAGTGTCATGGA (sugars kkddddddddddkeke, PS) | 44% | 
37 | TCACCACTGTGTACCC (sugars k2 d9 e3 k2, PS) | 0% | 
38 | CTTCTGCAGGGAGTCA (sugars k3 d10 k3, PS) | 0% | 
39 | CTGTCACATCTCCACA (sugars kkddddddddddkeke, PS) | 19% | 
40 | TTATCTCCGTCCTGGC (sugars kkdddddddddkekek, PS) | 0% | 
41 | AGCTTGGTCTTGACCT (sugars kkkddddddddkekek, PS) | 3% | 
42 | GGTGTATTTCCCTGTC (sugars kddddddddddkekek, PS) | 0% | 
43 | TTCTTGGACTCTCAAG (sugars kddddddddddkekek, PS) | 0% | 
44 | CACTGACACAGGCGGA (sugars kkddddddddddkeke, PS) | 0% | 
45 | AGTGAGTCTCAAACCA (sugars k3 d10 k3, PS) | 0% | 
46 | GAGTCTCAAACCAGGG (sugars kddddddddddkekek, PS) | 0% | 
47 | GGTGTATTTCCCTGTC (sugars kkkddddddddkekek, PS) | 0% | 
48 | TATTTCTGCTCCAGGT (sugars k2 d8 e4 k2, PS) | 43% | 
49 | TCATTTGCCTTCTGCA (sugars k3 d10 k3, PS) | 6% | 
